Seven compounds from patent US5354862A, “Preparation and the use of halopropargylated cyclic quaternary ammonium compounds as antimicrobial agents” (Rohm and Haas Company, priority 1993, dated 1994) can be followed below.

Where two headings read alike, the source gives them in different places.

Common to all, as to experiment: Broth two-fold serial dilution MIC test
The test system of one assay is Pseudomonas aeruginosa. It counts as cell-based, Pseudomonas aeruginosa (ATCC 15442). Particulars: Table 2, Psae. The source says: (§1) A minimum inhibitory concentration (MIC) value is obtained using a broth, two-fold serial dilution test performed as follows: A stock solution or dispersion of the test compound, typically at a concentration of 1%, is made in a 5:3:2 solvent solution of acetone. methanol, and water. A volume of the stock solution is dispensed into culture media to give an initial starting test concentration of 500 ppm compound.
(§2) When the test is ready to be done, each vessel in the dilution series, except the first vessel, contains an equal volume of compound free broth. The first vessel contains twice the volume of broth with the starting concentration of test compound. One half of the broth from the first vessel is transferred to the second vessel- After being mixed, one half the resulting volume is removed from the second vessel and transferred to the third vessel. The entire cycle is repeated sufficiently to give a series of concentrations amounting to 500, 250, 125, 63, 31, 16, 8, and 4, 2, 1, 0.5, 0.25 ppm respectively.
(§3) Each vessel is then inoculated with a cell suspension of the appropriate test organism. Bacteria are grown in broth, fungi on agar slants for a time and at a temperature appropriate to the species being tested, and algae are a mixture of green algae and blue-green bacteria grown in a nutrient media. At the end of the growth period, in the case of bacteria, the broth is vortexed to disperse the cells.
(§4) In the case of fungi, the spores are harvested by pipetting water onto the slant and dislodging the spores with a sterile loop. The cell/spore suspension is standardized by controlling incubation time, temperature, and the volume of the diluent. The suspension is then used to inoculate the vessels containing the broth compound.
(§5) The vessels are then incubated at the appropriate temperature. After the incubation, the vessels are examined for growth/no growth. The minimum inhibitory concentration (MIC) is defined as the lowest concentration of compound that results in complete inhibition of growth of the test organism.
1. Pseudomonas aeruginosa

Another assay deals with Staphylococcus aureus. It counts as cell-based, Staphylococcus aureus (ATCC 6538). Particulars: Table 2, Saur.
Text: as §1, §2, §3, §4, §5
2. Staphylococcus aureus

Another assay deals with Escherichia coli. Format: cell-based, Escherichia coli (ATCC 11229). The settings on record: Table 2, Ecol.
Text: as §1, §2, §3, §4, §5

A further assay relates to Aspergillus niger. Format: cell-based, Aspergillus niger (ATCC 6275). The settings on record: Table 2, Anig, TSB media.
Text: as §1, §2, §3, §4, §5
4. Aspergillus niger 6275 Anig

Setting [1] is: Pseudomonas aeruginosa, M9G media, read-out: MIC.
[2] abbreviates: Pseudomonas aeruginosa, TSB media, read-out: MIC.
Setting [3] is: Staphylococcus aureus, M9G media, read-out: MIC.
Setting [4] is: Staphylococcus aureus, TSB media, read-out: MIC.
[5] abbreviates: Escherichia coli, TSB media, read-out: MIC.
Where [6] appears, read: Aspergillus niger, read-out: MIC.

As for `OCCCCCCCCCCCC[N+]1(CC#CI)CCCCCC1` [Compound 27, 1-(12-hydroxydodecyl)-1-(3-iodopropargyl)-hexamethyleneiminium 4-methylbenzenesulfonate], the MIC in the assay on Pseudomonas aeruginosa (setting [1]) was above 250 µg/mL; in the assay with Pseudomonas aeruginosa (setting [2]), above 250 µg/mL; in the assay on Staphylococcus aureus (setting [3]), 16 µg/mL; with Staphylococcus aureus (setting [4]), 32 µg/mL; in the assay on Escherichia coli (setting [5]) it was 250 µg/mL; in the assay with Aspergillus niger (setting [6]), 32 µg/mL.

Take `CCCC[N+]1(CC#CI)CCCC1` [Compound 77, 1-n-butyl-1-(3-iodopropargyl)-pyrrolidinium bromide]: the MIC is above 500 ppm against Pseudomonas aeruginosa (M9G media); above 500 ppm in the assay with Pseudomonas aeruginosa (TSB media); 250 ppm in the assay with Staphylococcus aureus (M9G media); 250 ppm against Staphylococcus aureus (TSB media); 64 ppm against Escherichia coli (M9G media); 64 ppm against Escherichia coli (TSB media). Further, in the assay with Aspergillus niger, the MIC is listed as above 500 ppm.

Consider `CCCCCCCCCCCCCC[N+]1(CC#CI)CCCCC1C` (stereo not shown) [Compound 55, 1-(tetradecyl)-1-(3-iodopropargyl)-2-methylpiperidinium methanesulfonate], for which the MIC is reported as 125 ppm in the assay with Pseudomonas aeruginosa (M9G media); 125 ppm in the assay on Pseudomonas aeruginosa (TSB media); 1 ppm in the assay with Staphylococcus aureus (M9G media); 8 ppm against Staphylococcus aureus (TSB media); 4 ppm with Escherichia coli (M9G media); 16 ppm in the assay with Escherichia coli (TSB media). In the assay on Aspergillus niger, this compound came in with an MIC of 1 ppm.

As for `CCCCCCCCCCCCCC[N+]1(CC#CI)CCCCC1` [Compound 62, 1-tetradecyl-1-(3-iodopropargyl)-piperidinium methanesulfonate], the MIC in the assay with Pseudomonas aeruginosa (M9G media) is 16 ppm; in the assay on Pseudomonas aeruginosa (TSB media), 63 ppm; in the assay on Staphylococcus aureus (M9G media), 0.25 ppm; with Staphylococcus aureus (TSB media), 0.25 ppm; against Escherichia coli (M9G media), 2 ppm; with Escherichia coli (TSB media), 4 ppm. The compound further registered an MIC in the assay on Aspergillus niger of 0.25 ppm.

On to `CCOC(=O)CC[N+]1(CC#CI)CCCCC1` [Compound 22, 1-(2-ethoxycarbonylethyl)-1-(3-iodopropargyl)-piperidinium 4-methylbenzenesulfonate], for which the MIC with Pseudomonas aeruginosa (setting [1]) is above 250 µg/mL; with Pseudomonas aeruginosa (setting [2]) it was above 250 µg/mL; with Staphylococcus aureus (setting [3]), above 250 µg/mL; in the assay with Staphylococcus aureus (setting [4]), above 250 µg/mL; with Escherichia coli (setting [5]), above 250 µg/mL; in the assay on Aspergillus niger (setting [6]) it was 16 µg/mL.

As for `CCCCCCCCCCCCC[N+]1(CC#CI)CCCC1` [Compound 8, 1-tridecyl-1-(3-iodopropargyl)-pyrrolidinium 4-methylbenzenesulfonate], the MIC with Pseudomonas aeruginosa (setting [1]) stood at 16 µg/mL; against Pseudomonas aeruginosa (TSB media) it was 16 ppm; in the assay with Staphylococcus aureus (setting [3]) it was 0.5 µg/mL; in the assay on Staphylococcus aureus (TSB media) it was 1 ppm; in the assay on Escherichia coli (Escherichia coli, M9G media, read-out: MIC) it was 2 µg/mL; with Escherichia coli (TSB media), 4 ppm. For the same compound, the MIC with Aspergillus niger (setting [6]) stood at 1 µg/mL.

With `OCCCCCCCCC[N+]1(CC#CI)CCCCC1` [Compound 21, 1-(9-hydroxynonyl)-1-(3-iodopropargyl)-piperidinium 4-methylbenzenesulfonate], the MIC in the assay on Pseudomonas aeruginosa (setting [1]) was above 250 µg/mL; in the assay with Pseudomonas aeruginosa (setting [2]) it was above 250 µg/mL; in the assay on Staphylococcus aureus (setting [3]), above 250 µg/mL; in the assay with Staphylococcus aureus (setting [4]), above 250 µg/mL; in the assay with Escherichia coli (setting [5]), above 250 µg/mL; in the assay with Aspergillus niger (setting [6]), 63 µg/mL.
